Test [1] has as its system TNFα production in RAW 264.7 macrophage cell line. Description: Mouse TNF alpha quantification assay (LPS-stimulated macrophages, ELISA). Type of test: cell-based. Conditions: RAW264.7, RAW 264.7 murine leukemia virus transformed macrophage cell lines, LPS stimulation, read-out: TNF-α % Inhibition at 30 μM.
Test [2] has as its system IL6 production in RAW 264.7 macrophage cell line. Description: Mouse IL6 quantification assay (LPS-stimulated macrophages, ELISA). Type of test: cell-based. The following applies: RAW264.7, RAW 264.7 murine leukemia virus transformed macrophage cell lines, LPS stimulation, read-out: IL-6 % Inhibition at 30 μM.

With `COCCNc1nc(-c2nccn2C)nc2sc(-c3ccccc3)c(-c3ccc(OC)cc3)c12` [drawing 2416], the inhibition – broadly, how much of the control response was suppressed – at 30 µM in test [1] fell in the range of 51 to 75%; in test [2], 76 to 100%.
Regarding `Cc1cnc(-c2ccccn2)nc1NC(=O)C1CCCc2cc(C#N)ccc21` (stereo not shown) [drawing 2220], the values for the inhibition at 30 µM in test [1] and in test [2] were 51 to 75% and 76 to 100%, respectively.
Consider `Cn1ccnc1-c1nc(O)c2sc(-c3ccccc3)c(-c3ccccc3Cl)c2n1` [drawing 2422], for which the inhibition at 30 µM is 51 to 75% in test [1] and 76 to 100% in test [2].
As for `COCCNc1nc(-c2ccccn2)nc2c1c(-c1ccccc1)nn2-c1ccccn1` [drawing 2365], the inhibition at 30 µM lay in the range of 51 to 75% in test [1] and 76 to 100% in test [2].
As for `COc1cnc(C2CCCN2)nc1O` (stereo not shown) [drawing 2308], the inhibition at 30 µM in test [1] and in test [2] was 1 to 25% each time.
As to `Cc1ccc(OC2CCCC2)c(-c2csc3c(O)nc(-c4ccccn4)nc23)c1` [drawing 2237], the inhibition at 30 µM in test [1] is 51 to 75%; in test [2], 76 to 100%.
Taken in the same sequence, the figures for `Cc1sc2nc(N)nc(O)c2c1C` [drawing 2165] were 1 to 25% and 1 to 25%.
As to `Oc1nc(-c2ccccn2)nc2c(-c3ccc(OC4CCCCC4)cc3)csc12` [drawing 2279], the inhibition at 30 µM in test [1] and in test [2] was 76 to 100% throughout.
Turning to `COc1cnc(-c2cn(C)cn2)nc1O` [drawing 2339], the inhibition at 30 µM in test [1] is 0%; in test [2], 26 to 50%.
As for `COCC1CCN(C(=O)c2csc3c(O)nc(N)nc23)CC1` [drawing 2090], the inhibition at 30 µM in test [1] and in test [2] was 1 to 25% each time.
For `O=C(COc1ccc2c(c1)CCC2)Nc1nnc(-c2ccccn2)[nH]1` [drawing 1978], the inhibition at 30 µM in test [1] is 0%; in test [2], 1 to 25%.
As for `CN(CC(=O)Nc1nnc(-c2ccccn2)[nH]1)S(=O)(=O)c1ccccc1` [drawing 2001], the inhibition at 30 µM in test [1] was 0%; in test [2], 1 to 25%.
For `COC(=O)c1nc(-c2ccccn2)nc(O)c1O` [drawing 2374] the same measures were 0% and 0%.
Take `Cn1ccnc1-c1nc(O)c2scc(-c3ccccc3)c2n1` [drawing 2441]: the inhibition at 30 µM in test [1] fell in the range of 51 to 75%; in test [2] it was 76 to 100%.
For `Cc1sc2c(N)nc(-c3ccccn3)nc2c1-c1ccccc1` [drawing 2230] the same measures were 1 to 25% and 51 to 75%.
For `CCOc1cc(C(=O)Oc2c(C)ccc(C)c2C)cc(OCC)c1OCC` [drawing 2057] the same measures were 1 to 25% and 51 to 75%.
Consider `COc1nc(-c2cn(C)cn2)nc2sc(-c3ccncc3)c(-c3ccccc3)c12` [drawing 2358], for which the inhibition at 30 µM in test [1] fell in the range of 1 to 25%; in test [2], 51 to 75%.
Taken in the same sequence, the figures for `Brc1csc2nc(-c3ccccn3)nc(N3CCOCC3)c12` [drawing 2126] were 0% and 51 to 75%.
For `O=C(c1csc2c(O)nc(-c3ccccn3)nc12)N1CCNC(c2ccc(O)cc2)C1` (stereo not shown) [drawing 2218] the same measures were 0% and 1 to 25%.
For `Cc1nn(C(C)C)cc1-c1csc2c(O)nc(-c3ccccn3)nc12` [drawing 2328] the same measures were 26 to 50% and 76 to 100%.
On to `O=C(Nc1nnc(-c2ccccn2)[nH]1)C1CCCC(C(F)(F)F)C1` (stereo not shown) [drawing 1972], for which the inhibition at 30 µM is 0% in test [1] and 1 to 25% in test [2].
For `O=C(Cc1c[nH]c2ccccc12)Nc1nnc(-c2ccccn2)[nH]1` [drawing 1931] the same measures were 1 to 25% and 26 to 50%.
For `O=C(c1ccccn1)N1CCCc2c(O)nc(-c3ccccn3)nc21` [drawing 2087] the same measures were 1 to 25% and 1 to 25%.
For `Oc1nc(-c2ccccn2)nc2c(-c3ccnn3-c3ccccn3)csc12` [drawing 2296] the same measures were 0% and 51 to 75%.
Regarding `Nc1nc(O)c2scc(C(=O)N3CCC(N4CCCC4=O)CC3)c2n1` [drawing 2094], the inhibition at 30 µM in test [1] was 0%; in test [2], 1 to 25%.
Taken in the same sequence, the figures for `Oc1nc(-c2ccccn2)nc2c(CC3CCNC3)csc12` (stereo not shown) [drawing 2353] were 1 to 25% and 51 to 75%.
Consider `CCN(CC)S(=O)(=O)c1ccc(NCCOC)c(C(=O)NCCSCc2ccc(C)cc2)c1` [drawing 2066], for which the inhibition at 30 µM in test [1] and in test [2] was 26 to 50% in each case.
Take `Cc1sc2c(N)nc(-c3ccccn3)nc2c1Br` [drawing 2285]: the inhibition at 30 µM in test [1] was 0%; in test [2], 1 to 25%.
For `COc1ccc(CCC(=O)N2CCCc3c(O)nc(-c4ccccn4)nc32)cc1` [drawing 2073] the same measures were 26 to 50% and 76 to 100%.
For the molecule `c1ccc(-c2csc3nc(-c4ccccn4)nc(N4CCN(Cc5cccnc5)CC4)c23)cc1` [drawing 2139], the inhibition at 30 µM in test [1] is 51 to 75%; in test [2], 76 to 100%.
Taken in the same sequence, the figures for `O=C(c1csc2c(O)nc(-c3ccccn3)nc12)N1CCOC(c2ccccc2)C1` (stereo not shown) [drawing 2191] were 0% and 51 to 75%.
Consider `COC1CCN(c2nc(-c3nccn3C)nc3sc(-c4ccccc4)c(-c4ccccc4)c23)C1` (stereo not shown) [drawing 2398], for which the inhibition at 30 µM in test [1] and in test [2] was 76 to 100% throughout.
Regarding `O=C(c1cc2nc(-c3ccccn3)nc(O)c2s1)N1CCN(c2ccccc2)CC1` [drawing 2234], the inhibition at 30 µM in test [1] was 0%; in test [2], 26 to 50%.
In the case of `COc1cccc(CN2CCN(C(=O)c3csc4c(O)nc(-c5ccccn5)nc34)CC2)c1` [drawing 2188], the inhibition at 30 µM is 0% in test [1] and 51 to 75% in test [2].
For `CN(CCc1ccncc1)C(=O)c1csc2c(O)nc(-c3ccccn3)nc12` [drawing 2114], the inhibition at 30 µM in test [1] is 0%; in test [2], 51 to 75%.
For `CC(=O)N1CCN(c2nc(-c3ccccn3)nc3scc(-c4ccccc4)c23)CC1` [drawing 2162] the same measures were 26 to 50% and 26 to 50%.
`CNC(=O)CN1CCN(c2nc(-c3ccccn3)nc3scc(-c4ccccc4)c23)CC1` [drawing 2144]: the inhibition at 30 µM in test [1] and in test [2] was 1 to 25% each time.
As to `O=C(c1csc2c(O)nc(-c3ccccn3)nc12)N1CCNC(c2ccc(F)cc2)C1` (stereo not shown) [drawing 2217], the inhibition at 30 µM in test [1] is 0%; in test [2] it was 1 to 25%.
Turning to `CC(C)NC(=O)Nc1cccc(C(=O)Nc2nnc(-c3ccccn3)[nH]2)c1` [drawing 1926], the inhibition at 30 µM in test [1] is 1 to 25%; in test [2] it was 0%.
For `Cc1nc(-c2ccccn2)sc1C(=O)Nc1nnc(-c2ccccn2)[nH]1` [drawing 1983] the same measures were 0% and 1 to 25%.
Take `FC(F)(F)Sc1ccc(Cc2ccc(SC(F)(F)F)cc2)cc1` [drawing 2051]: the figures for the inhibition at 30 µM in test [1] and in test [2] were 0% and 1 to 25%, respectively.
Taken in the same sequence, the figures for `Oc1nc(-c2ccccn2)nc2c(-c3cc(F)ccc3OC(F)F)csc12` [drawing 2252] were 26 to 50% and 76 to 100%.
Taken in the same sequence, the figures for `O=C(Nc1nc(-c2ccccn2)cs1)c1ccccn1` [drawing 2014] were 1 to 25% and 51 to 75%.
`Oc1nc(-c2ccccn2)nc2c(-c3ccc(OC(F)F)cc3F)csc12` [drawing 2268]: the inhibition at 30 µM in test [1] was in the range of 26 to 50%; in test [2] it was 76 to 100%.
Taken in the same sequence, the figures for `O=C(Nc1nc(-c2ccccn2)cs1)c1cccnc1` [drawing 2017] were 1 to 25% and 1 to 25%.
Taken in the same sequence, the figures for `Nc1nc(-c2ccccn2)nc2scc(C(=O)O)c12` [drawing 2298] were 1 to 25% and 1 to 25%.
For `Oc1nc(-c2ccccn2)nc2cc(-c3ccccc3)sc12` [drawing 2389] the same measures were 1 to 25% and 26 to 50%.
Turning to `Cc1ccc(CN(Cc2ccco2)C(=O)c2oc3ccccc3c2C)cc1` [drawing 2049], the inhibition at 30 µM in test [1] is 0%; in test [2], 1 to 25%.
Taken in the same sequence, the figures for `Oc1nc(-c2ccccn2)nc2scc(Br)c12` [drawing 2128] were 76 to 100% and 76 to 100%.
For `Cc1sc2nc(-c3ccccn3)nc(NCCc3nccn3C)c2c1-c1ccccc1` [drawing 2134] the same measures were 0% and 1 to 25%.
On to `COCCNc1nc(-c2cccc(N)n2)nc2sc(-c3ccccc3)c(-c3ccccc3)c12` [drawing 2418], for which the inhibition at 30 µM in test [1] and in test [2] was 26 to 50% throughout.
`CC(C)COc1ccc(-c2csc3c(O)nc(-c4cn(C)cn4)nc23)cn1` [drawing 2432]: the inhibition at 30 µM in test [1] lay in the range of 26 to 50%; in test [2] it was 76 to 100%.
As for `COc1cncc(CCNC(=O)c2csc3nc(-c4ccccn4)nc(N4CCOCC4)c23)c1`, the inhibition at 30 µM in test [1] is 0%; in test [2], 1 to 25%.
For `Cn1ccnc1-c1nc(O)c2sc(-c3ccccc3)c(-c3ccccc3)c2n1` [drawing 2415] the same measures were 0% and 1 to 25%.
Taken in the same sequence, the figures for `CCCCSc1nc(-c2cccs2)c(C(=O)C(F)(F)F)cc1C#N` [drawing 2053] were 0% and 51 to 75%.
For `COc1cccc(C2CN(C(=O)c3csc4c(O)nc(-c5ccccn5)nc34)CCN2)c1` (stereo not shown) [drawing 2197] the same measures were 1 to 25% and 76 to 100%.
